Experiment [1] addresses T1, WT STING (truncated human WT STING protein) (Homo sapiens, UniProt Q86WV6, H232R).
T1 construct: truncated human WT STING or AQ STING (amino acid residues 140-343); 8xHis (N, cleaved yes); SUMO (N, cleaved yes); made in house; host or cells: E. coli Rosetta-gami B (DE3)
In words: Differential Scanning Fluorimetry with WT STING. The format is binding. The settings on record: thermal shift vs apoprotein, 150 μM CDN, 0.1 mg/ml STING protein, SYPRO Orange; for ΔTm at 150 µM: read-out: DSF ΔTm (° C.) WT STING. As to the method: (§1) Purified PCR products were cleaved with restriction enzymes BamHI (cat. #R0136S, NEB, Ipswich, USA) and NotI (cat. #R0189S, NEB, Ipswich, USA) and cloned into the pSUMO vector linearized with the identical enzymes.
(§2) DNase I (cat. #D5025, Sigma Aldrich, Czech Republic) and RNase A (cat. #R6513, Sigma Aldrich, Czech Republic) were added (final concentration […]) together with MgCl2 (final concentration 5 mmol·l^−1) to the homogenate and bacteria were lysed using French Press G-M™ High-Pressure Cell Press Homogenizer (1500 psi, 3 cycles). […] The resin was poured into a chromatography column, washed with 50 ml buffer A (50 mmol·l^−1 TrisCl (pH 8.0), 800 mmol·l^−1 NaCl, 3 mmol·l^−1β-mercaptoethanol; 10% glycerol; 20 mmol·l^−1 imidazole) and 8-His-SUMO tagged STING proteins were eluted with 15 ml buffer A containing 300 mmol·l^−1 imidazole. […] Proteins were concentrated with Amicon® Ultra-15 10 K device (cat. #UFC901008, Merck Millipore, Billerica, USA) and flash frozen in liquid N2.
(§3) Differential Scanning Fluorimetry with WT STING and AQ STING
(§4) 20 μL solutions of the reaction mixtures were pipetted in triplicates into 96 well optical reaction plates and thermal denaturation of samples were performed on real time PCR cycler (LightCycler® 480 Instrument II—Roche, Base^1, Switzerland). The first derivative of the thermal denaturation curves was performed to calculate denaturing temperatures of STING-CDN complexes and STING apoproteins. The thermal shift for each CDN was calculated by subtracting the average denaturing temperature of STING apoprotein from the average denaturing temperature of STING CDN complex.

The target of experiment [2] is T2, AQ STING (truncated human STING G230A-R293Q allelic form) (Homo sapiens, UniProt Q86WV6, G230A/H232R/R293Q).
T2 construct: truncated human WT STING or AQ STING (amino acid residues 140-343); 8xHis (N, cleaved yes); SUMO (N, cleaved yes); made in house; host or cells: E. coli Rosetta-gami B (DE3)
T2 sequence (Q86WV6 140-343 G230A/H232R/R293Q): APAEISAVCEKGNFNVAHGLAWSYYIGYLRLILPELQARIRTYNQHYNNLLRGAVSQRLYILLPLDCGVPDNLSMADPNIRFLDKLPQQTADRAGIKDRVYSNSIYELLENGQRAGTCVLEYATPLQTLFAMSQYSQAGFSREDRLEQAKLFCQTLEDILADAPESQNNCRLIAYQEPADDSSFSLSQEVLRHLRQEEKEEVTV
In words: Differential Scanning Fluorimetry with AQ STING. The experiment is classed as binding. As to conditions: thermal shift vs apoprotein, 150 μM CDN, 0.1 mg/ml STING protein, SYPRO Orange; for ΔTm at 150 µM: read-out: DSF ΔTm (° C.) AQ STING. How it is done:
as §1, §2, §3, §4

Experiment [3] addresses human wild type STING (WT STING) (Homo sapiens, UniProt Q86WV6, H232R). In words: Digitonin assay using 293T wtSTING-FL reporter cells (ISRE firefly luciferase reporter). The format is cell-based. As to conditions: 293T wtSTING-FL cells; 30 min in Digitonin buffer, then 5 hours; luciferase read-out; 8-point dose-response curve; read-out: Digitonin assay EC50 (μmol · l^−1) WT STING. An excerpt:
Two complementary oligonucleotides of the sequence […] […] […] […] […] The oligonucleotides were mixed in equal molar amounts, hybridized, and cleaved by restriction endonucleases HindIII (cat. #. R0104S, NEB, Ipswich, USA) and BglII (cat. #R0144S, NEB, Ipswich, USA). Ultimately, they were ligated into plasmid pGL4.27 (cat. #E6651, Promega, Madison, USA) linearized with the same enzymes. As result the sequence with four ISRE sites was placed upstream of the minimum promoter of firefly luciferase reporter gene.
After 5 minutes incubation at room temperature (RT), 250 μL of the mixture was added dropwise to the cells in one well.
Transfected cells were seeded onto poly-D-lysine coated six well plates at density 50,000 cells per 1 cm^2 in DMEM medium with high glucose containing 10% heat inactivated FBS, 30 μg/mL blasticidin (cat. #ant-bl-05, InvivoGen, San Diego, USA), 0.06 mg/ml Penicillin G and 0.1 mg/ml Streptomycin Sulfate (both cat. #. L0018, Biowest, Riverside, USA). The medium was replenished every 3-4 days until visible colonies of cells resistant to blasticidin were formed.
Blasticidin resistant cells stably expressing WT STING were further transfected with […] plasmid following the same procedure as described above. […] Homogeneous culture of stably double transfected cells was prepared by limiting dilution of cells in 96 well plates and wells with cells were selected that originated from a single cell.
The medium was removed next day and three fold serial dilutions of compounds in Digitonin buffer containing 50 mmol·l^−1 HEPES (cat. #H3375, Sigma Aldrich, Czech Republic) pH 7.0, 100 mmol·l^−1 KCl, 3 mmol·l^−1 MgCl2, 0.1 mmol·l^−1 DTT (cat. #D0632, Sigma Aldrich, Czech Republic), 85 mmol·l^−1 Sucrose (cat. #S7903, Sigma Aldrich, Czech Republic), 0.2% BSA (cat. #A2153, Sigma Aldrich, Czech Republic), 1 mmol·l^−1 ATP (cat. #A1852, Sigma Aldrich, Czech Republic), 0.1 mmol·l^−1 GTP (cat. #G8877, Sigma Aldrich, Czech Republic), and 10 μg/mL Digitonin A (cat. #D141, Sigma Aldrich, Czech Republic) were added to the cells. The buffer was removed after 30 minutes incubation at 37° C. with 5% CO2, the cells were washed once with 100 μl of cultivation medium, and 100 IA of medium was added to each well. The plates with cells were incubated for 5 hours at 37° C. with 5% CO2, 50 μl of the medium was removed and 30 μl of ONE-Glo™ Luciferase Assay System reagent (cat. #E6120, Promega, Madison, USA) was added to each well. Luminesce was read on Synergy H1 (Biotek, Winooski, USA).

T1 sequence (Q86WV6 140-343 H232R): as the sequence (Q86WV6 140-343 G230A/H232R/R293Q) above, with A91G, Q154R counted along it
human wild type STING (WT STING), sequence (Q86WV6 whole entry H232R): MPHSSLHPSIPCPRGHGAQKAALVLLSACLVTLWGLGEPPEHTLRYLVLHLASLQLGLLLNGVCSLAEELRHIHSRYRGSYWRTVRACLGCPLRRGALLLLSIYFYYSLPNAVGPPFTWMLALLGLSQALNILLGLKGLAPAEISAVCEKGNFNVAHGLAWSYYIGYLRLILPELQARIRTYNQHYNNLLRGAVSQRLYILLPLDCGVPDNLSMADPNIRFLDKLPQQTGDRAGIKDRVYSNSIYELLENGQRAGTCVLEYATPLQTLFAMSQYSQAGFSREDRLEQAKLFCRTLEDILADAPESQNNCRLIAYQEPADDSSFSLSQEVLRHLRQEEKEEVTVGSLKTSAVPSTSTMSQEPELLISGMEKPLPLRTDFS

Take `Nc1nc(N)c2ncn([C@@H]3O[C@@H]4COP(=O)(O)CO[C@H]5[C@@H](O)[C@H](n6cnc7c(N)ncnc76)O[C@@H]5COP(=O)(O)O[C@@H]3[C@@H]4F)c2n1` [Example 25, (1S,6R,8R,9R,10S,16R,18R,19R)-8-(6-amino-9H-purin-9-yl)-18-(2,6-diamino-9H-purin-9-yl)-19-fluoro-3,9,13-trihydroxy-2,4,7,11,14,17-hexaoxa-3λ^5,13λ^5-diphosphatricyclo[14.2.1.0^6,^10]nonadecane-3,13-dione]: the thermal shift (ΔTm) at 150 µM in experiment [1] stood at 10.6 °C; in experiment [2] it was 17.5 °C. For the same molecule, the 50% effective concentration (EC50) in experiment [3] was determined as 0.053 µM.

With `Nc1nc2c(ncn2[C@@H]2O[C@@H]3COP(=O)(O)O[C@H]4[C@@H](O)[C@H](n5cnc6c(=O)[nH]c(N)nc65)O[C@@H]4COP(=O)(O)O[C@H]3[C@H]2O)c(=O)[nH]1` [3′3′-c-di-GMP, reference compound], the “DSF ΔTm (° C.) WT STING” value in experiment [1] worked out at 2.6 °C. Further, in experiment [2], the “DSF ΔTm (° C.) AQ STING” value was determined as 7.7 °C. For the same molecule, in experiment [3], the EC50 was 5.8 µM.

As for `Nc1nc2c(ncn2[C@@H]2O[C@@H]3COP(=O)(O)O[C@@H]4[C@H](O)[C@@H](COP(=O)(O)CO[C@H]3[C@H]2O)O[C@H]4n2cnc3c(N)ncnc32)c(=O)[nH]1` [Example 2, (1R,6R,8R,9R,10S,16R,18R,19R)-8-(2-amino-6-oxo-6,9-dihydro-1H-purin-9-yl)-18-(6-amino-9H-purin-9-yl)-3,9,13,19-tetrahydroxy-2,4,7,11,14,17-hexaoxa-3λ^5,13λ^5-diphosphatricyclo[14.2.1.0^6,^10]nonadecane-3,13-dione], the ΔTm at 150 µM in experiment [1] turned out to be 1.4 °C; in experiment [2] it was 8.8 °C. Further, the concentration giving a half-maximal response (EC50) in experiment [3] was determined as 1.2 µM.

For `Nc1ncnc2c1ncn2[C@@H]1O[C@@H]2COP(=O)(O)O[C@H]3[C@@H](O)[C@H](n4cnc5c(N)ncnc54)O[C@@H]3COP(=O)(O)O[C@H]2[C@H]1O` [3′3′-c-di-AMP, reference compound], in experiment [1], the “DSF ΔTm (° C.) WT STING” value amounted to 2.6 °C. In experiment [2], the “DSF ΔTm (° C.) AQ STING” value was 9.3 °C. Further, in experiment [3], the EC50 was 0.3 µM.

In the case of `Nc1nc(N)c2ncn([C@@H]3O[C@@H]4COP(=O)(O)O[C@@H]5[C@H](O)[C@@H](COP(=O)(O)CO[C@H]4[C@H]3F)O[C@H]5n3cnc4c(N)ncnc43)c2n1` [Example 26, (1R,6R,8R,9R,10R,16R,18R,19R)-18-(6-amino-9H-purin-9-yl)-8-(2,6-diamino-9H-purin-9-yl)-9-fluoro-3,13,19-trihydroxy-2,4,7,11,14,17-hexaoxa-3λ^5,13λ^5-diphosphatricyclo[14.2.1.0^6,^10]nonadecane-3,13-dione], the figures for the shift in melting temperature (ΔTm) at 150 µM in experiment [1] and in experiment [2] were 2.1 °C and 7.5 °C, respectively. The EC50 in experiment [3] stood at 0.58 µM.

On to `Nc1nc2c(ncn2[C@@H]2O[C@@H]3COP(=O)(O)O[C@@H]4[C@H](O)[C@@H](COP(=O)(O)O[C@@H]2[C@@H]3O)O[C@H]4n2cnc3c(N)ncnc32)c(=O)[nH]1` [2′2′-cGAMP, reference compound], for which, in experiment [1], the “DSF ΔTm (° C.) WT STING” value stood at 11.5 °C. In experiment [2], the “DSF ΔTm (° C.) AQ STING” value is 19.4 °C. Further, the EC50 in experiment [3] is 0.03 µM.

In the case of `Nc1nc2c(ncn2[C@@H]2O[C@@H]3COP(=O)(O)CO[C@H]4[C@@H](F)[C@H](n5cnc6c(N)ncnc65)O[C@@H]4COP(=O)(O)O[C@@H]2C3)c(=O)[nH]1` [Example 18, (1R,6R,8R,9R,10R,16S,18R)-18-(2-amino-6-oxo-6,9-dihydro-1H-purin-9-yl)-8-(6-amino-9H-purin-9-yl)-9-fluoro-3,13-dihydroxy-2,4,7,11,14,17-hexaoxa-3λ^5,13λ^5-diphosphatricyclo[14.2.1.0^6,^10]nonadecane-3,13-dione], the ΔTm at 150 µM in experiment [1] was determined as 19 °C; in experiment [2], 23.9 °C. Also, the EC50 in experiment [3] was 0.02 µM.

`Nc1ncnc2c1ncn2[C@@H]1O[C@@H]2COP(=O)(O)CO[C@@H]3[C@H](O)[C@@H](COP(=O)(O)O[C@H]2[C@H]1O)O[C@H]3n1cnc2c(N)ncnc21` [Example 23, (1R,6S,7R,8R,10R,16R,17R,19R)-8,17-bis(6-amino-9H-purin-9-yl)-4,7,13,19-tetrahydroxy-3,5,9,12,15,18-hexaoxa-4λ^5,13λ^5-diphosphatricyclo[14.2.1.0^6,^10]nonadecane-4,13-dione]: the figures for the ΔTm at 150 µM in experiment [1] and in experiment [2] were 0.2 °C and 3.4 °C, respectively. Also, the EC50 in experiment [3] was found to be 5.9 µM.

For the origin of these results see patent publication US11149052B2, “2′3′-cyclic dinucleotides” (Institute of Organic Chemistry and Biochemistry, ASCR, V.V.I, priority 2018, dated 2021).
